One data set deals with Cytochrome P450 3A4 (Homo sapiens, UniProt P08684).
Data set [1] has as its target T1, Mannose-6-phosphate isomerase (Homo sapiens, UniProt P34949).
T1 sequence (P34949 whole entry): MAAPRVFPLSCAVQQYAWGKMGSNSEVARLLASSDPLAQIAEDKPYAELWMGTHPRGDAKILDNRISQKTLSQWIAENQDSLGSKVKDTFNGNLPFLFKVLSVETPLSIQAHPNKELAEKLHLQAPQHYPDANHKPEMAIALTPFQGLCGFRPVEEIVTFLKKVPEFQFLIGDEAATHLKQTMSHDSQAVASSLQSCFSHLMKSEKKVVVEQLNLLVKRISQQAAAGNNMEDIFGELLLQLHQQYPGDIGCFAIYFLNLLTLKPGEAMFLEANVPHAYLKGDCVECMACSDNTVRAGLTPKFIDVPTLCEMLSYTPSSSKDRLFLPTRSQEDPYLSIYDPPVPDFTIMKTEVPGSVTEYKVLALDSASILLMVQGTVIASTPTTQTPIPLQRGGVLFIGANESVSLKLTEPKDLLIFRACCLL
Nature of the data set: phosphomannose isomerase inhibition – biochemical, fluorescence intensity, confirmation (AID 1535).

In the next data set the target is T2, Phosphomannomutase 2 (Homo sapiens, UniProt O15305).
T2 sequence (O15305 whole entry): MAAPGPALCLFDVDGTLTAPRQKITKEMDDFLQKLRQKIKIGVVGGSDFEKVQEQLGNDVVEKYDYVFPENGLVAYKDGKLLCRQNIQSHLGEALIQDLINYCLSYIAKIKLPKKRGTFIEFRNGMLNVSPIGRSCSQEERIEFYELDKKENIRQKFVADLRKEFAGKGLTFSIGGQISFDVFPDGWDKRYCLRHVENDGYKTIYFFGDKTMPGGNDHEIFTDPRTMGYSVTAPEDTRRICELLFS
Nature of the data set: Counter screen SAR assay for PMM2 inhibitors via a fluorescence intensity assay. [Related pubchem assays (depositor defined):AID1545, AID1574]. (The purpose of a counterscreen is to sort out artefacts and off-target activity.)

Another data set deals with T3, Leucine aminopeptidase (Plasmodium falciparum 3D7, UniProt Q8IL11).
T3 sequence (Q8IL11 whole entry): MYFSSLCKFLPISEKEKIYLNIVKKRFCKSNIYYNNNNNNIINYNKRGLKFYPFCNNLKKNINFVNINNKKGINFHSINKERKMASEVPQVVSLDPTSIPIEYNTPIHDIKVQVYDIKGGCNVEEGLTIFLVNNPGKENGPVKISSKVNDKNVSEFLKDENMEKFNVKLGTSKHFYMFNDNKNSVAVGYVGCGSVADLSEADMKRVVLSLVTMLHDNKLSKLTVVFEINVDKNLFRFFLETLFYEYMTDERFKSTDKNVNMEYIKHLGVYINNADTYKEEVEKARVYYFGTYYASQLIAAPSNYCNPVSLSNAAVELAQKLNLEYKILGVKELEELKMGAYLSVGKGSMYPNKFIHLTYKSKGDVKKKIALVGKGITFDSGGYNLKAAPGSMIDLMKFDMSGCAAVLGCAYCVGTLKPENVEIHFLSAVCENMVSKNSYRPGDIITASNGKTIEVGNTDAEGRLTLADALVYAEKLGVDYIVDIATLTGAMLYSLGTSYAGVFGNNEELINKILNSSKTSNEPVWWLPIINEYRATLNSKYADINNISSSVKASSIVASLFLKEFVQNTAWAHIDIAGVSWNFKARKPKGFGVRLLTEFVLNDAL
Nature of the data set: P. falciparum M17LAP inhibitors, primary screen, biochemical, fluorogenic H-Leu-NHMec substrate, 1536-well (AID 1619). It is filed as functional.

For data set [2], the target named is T4, Tyrosine-protein phosphatase non-receptor type 7 (Homo sapiens, UniProt P35236).
T4 sequence (P35236 whole entry): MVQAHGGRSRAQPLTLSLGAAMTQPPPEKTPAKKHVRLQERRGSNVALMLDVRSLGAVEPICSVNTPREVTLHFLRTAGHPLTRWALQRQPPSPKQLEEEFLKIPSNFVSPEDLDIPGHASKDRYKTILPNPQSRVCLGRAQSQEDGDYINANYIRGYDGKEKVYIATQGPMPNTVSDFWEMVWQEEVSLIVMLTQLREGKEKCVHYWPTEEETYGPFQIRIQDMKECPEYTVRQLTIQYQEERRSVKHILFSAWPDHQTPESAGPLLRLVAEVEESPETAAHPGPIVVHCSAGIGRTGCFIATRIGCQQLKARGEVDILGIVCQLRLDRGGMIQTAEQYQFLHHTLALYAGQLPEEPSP
The format is functional.

Data set [3] addresses T5, Tyrosine-protein phosphatase non-receptor type 22 (Homo sapiens, UniProt Q9Y2R2).
T5 sequence (Q9Y2R2 whole entry): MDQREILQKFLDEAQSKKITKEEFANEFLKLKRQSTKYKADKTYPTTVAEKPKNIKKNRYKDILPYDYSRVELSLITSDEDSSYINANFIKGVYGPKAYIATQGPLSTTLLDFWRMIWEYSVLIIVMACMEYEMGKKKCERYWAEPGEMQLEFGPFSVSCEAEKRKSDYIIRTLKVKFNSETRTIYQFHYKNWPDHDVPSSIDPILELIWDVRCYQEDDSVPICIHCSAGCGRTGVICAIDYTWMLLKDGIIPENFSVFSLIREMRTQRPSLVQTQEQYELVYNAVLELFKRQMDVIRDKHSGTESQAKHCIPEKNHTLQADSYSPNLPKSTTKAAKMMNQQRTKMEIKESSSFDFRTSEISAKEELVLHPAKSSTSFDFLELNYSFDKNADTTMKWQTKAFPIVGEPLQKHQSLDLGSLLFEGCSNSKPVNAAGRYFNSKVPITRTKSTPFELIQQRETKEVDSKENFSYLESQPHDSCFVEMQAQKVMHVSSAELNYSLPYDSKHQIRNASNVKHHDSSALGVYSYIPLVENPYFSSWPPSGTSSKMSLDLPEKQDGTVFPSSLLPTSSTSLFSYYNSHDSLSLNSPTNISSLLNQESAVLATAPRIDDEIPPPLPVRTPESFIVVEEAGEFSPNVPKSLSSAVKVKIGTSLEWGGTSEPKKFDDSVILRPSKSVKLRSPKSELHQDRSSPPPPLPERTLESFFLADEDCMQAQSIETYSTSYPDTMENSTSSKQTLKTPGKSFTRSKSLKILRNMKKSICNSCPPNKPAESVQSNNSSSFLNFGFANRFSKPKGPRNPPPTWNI
It is filed as functional.

In data set [4] the target is T5, Tyrosine-protein phosphatase non-receptor type 22. It is filed as functional. The source holds these as a separate data set.
For another data set, the target named is Tumor necrosis factor (Homo sapiens, UniProt P01375). Nature of the data set: analog potency on TNFa NF-kB signaling – cell-based, revised, SAR follow-up (AID 2337). The format is functional.
Sequence of Tumor necrosis factor (P01375 whole entry, the tested form may be a part): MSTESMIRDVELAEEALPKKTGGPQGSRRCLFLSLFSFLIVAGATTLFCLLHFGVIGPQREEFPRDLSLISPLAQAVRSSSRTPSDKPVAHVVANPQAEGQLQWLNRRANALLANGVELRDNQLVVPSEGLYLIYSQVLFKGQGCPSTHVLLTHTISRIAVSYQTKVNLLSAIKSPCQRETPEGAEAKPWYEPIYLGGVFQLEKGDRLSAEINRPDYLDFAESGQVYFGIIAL
In data set [5] the target is T6, Nucleotide-binding oligomerization domain-containing protein 1 (Homo sapiens, UniProt Q9Y239).
T6 sequence (Q9Y239 whole entry): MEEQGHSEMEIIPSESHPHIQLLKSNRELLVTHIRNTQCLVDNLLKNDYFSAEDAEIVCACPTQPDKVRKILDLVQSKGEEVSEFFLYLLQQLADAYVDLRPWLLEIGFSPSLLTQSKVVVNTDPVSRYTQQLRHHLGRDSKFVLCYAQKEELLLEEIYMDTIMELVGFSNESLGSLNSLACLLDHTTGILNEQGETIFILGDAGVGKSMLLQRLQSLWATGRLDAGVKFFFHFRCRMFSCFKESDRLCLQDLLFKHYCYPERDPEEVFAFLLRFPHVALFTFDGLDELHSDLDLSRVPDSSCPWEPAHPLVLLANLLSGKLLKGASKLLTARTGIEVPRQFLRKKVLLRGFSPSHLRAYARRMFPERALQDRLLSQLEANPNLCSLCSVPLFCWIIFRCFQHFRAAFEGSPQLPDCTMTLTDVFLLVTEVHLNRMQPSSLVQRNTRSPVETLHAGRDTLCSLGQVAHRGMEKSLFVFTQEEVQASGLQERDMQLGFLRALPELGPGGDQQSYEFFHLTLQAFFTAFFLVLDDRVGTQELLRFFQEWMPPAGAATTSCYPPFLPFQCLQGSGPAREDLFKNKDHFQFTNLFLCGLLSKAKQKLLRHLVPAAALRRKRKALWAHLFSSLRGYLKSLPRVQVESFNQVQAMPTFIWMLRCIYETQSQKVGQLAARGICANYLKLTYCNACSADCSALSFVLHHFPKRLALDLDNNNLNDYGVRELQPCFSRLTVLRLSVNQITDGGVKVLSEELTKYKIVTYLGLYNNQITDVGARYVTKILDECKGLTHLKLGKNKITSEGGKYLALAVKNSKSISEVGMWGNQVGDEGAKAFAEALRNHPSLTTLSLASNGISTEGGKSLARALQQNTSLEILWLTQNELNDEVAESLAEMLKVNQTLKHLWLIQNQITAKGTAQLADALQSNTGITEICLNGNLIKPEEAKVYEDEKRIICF
Nature of the data set: blockers of NOD1 pathway activity – revised, SAR follow-up (AID 2333). It is filed as functional.

In data set [6] the test system is HEK293. Nature of the data set: cells. Particulars: Homo sapiens.
Data set [7] relates to HEK293. Nature of the data set: inhibition of NOD1-driven NF-kB reporter – cell-based, luminescence, uHTS, primary screen (AID 1578). The format is functional. Particulars: Homo sapiens.
In data set [8] the test system is Streptococcus sp. 'group A'. Nature of the data set: Streptococcus pyogenes SK(-)GAS viability under kanamycin – luminescence, BacTiterGlo, confirmation, counter-screen for streptokinase expression inhibitor project, dose response (AID 1900). It is filed as functional, organism-based.
The test system of data set [9] is HEK293. Nature of the data set: cells. The format is functional, cell-based. Particulars: Homo sapiens.
Another data set has as its target T7, Streptokinase A (Streptococcus pyogenes serotype M1, UniProt P10520).
T7 sequence (P10520 whole entry): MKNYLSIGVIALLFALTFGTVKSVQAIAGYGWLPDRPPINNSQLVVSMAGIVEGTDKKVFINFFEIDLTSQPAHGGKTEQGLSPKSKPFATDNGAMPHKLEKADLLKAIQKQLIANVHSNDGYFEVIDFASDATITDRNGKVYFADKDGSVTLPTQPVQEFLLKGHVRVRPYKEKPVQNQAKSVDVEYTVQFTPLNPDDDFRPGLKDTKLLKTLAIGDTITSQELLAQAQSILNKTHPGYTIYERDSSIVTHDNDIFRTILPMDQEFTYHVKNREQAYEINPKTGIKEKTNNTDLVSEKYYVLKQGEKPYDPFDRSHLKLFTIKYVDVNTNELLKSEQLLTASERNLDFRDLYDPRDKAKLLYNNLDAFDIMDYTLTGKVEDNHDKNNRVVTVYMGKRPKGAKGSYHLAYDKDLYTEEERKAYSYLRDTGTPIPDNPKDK
Nature of the data set: viability-normalized secreted streptokinase activity reduction – plasminogen activation absorbance, OD405, dose response (AID 1914).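 Further: secreted streptokinase activity via plasminogen activation per viability signal from cell pellet.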 The format is functional, Streptococcus pyogenes M1 GAS.

Data set [10] has as its system HEK293. Nature of the data set: cells. The format is functional, cell-based. Particulars: Homo sapiens. The source holds these as a separate data set.
In data set [11] the test system is HEK293. Nature of the data set: NOD2 signaling inhibitors in MDP-stimulated cells, cell-based, uHTS, luminescence (AID 2001). The format is functional. Particulars: Homo sapiens.
The subject of another data set is Streptococcus. Nature of the data set: GAS UMAA2166 growth inhibition – luminescence, BacTiterGlo, counter-screen for streptokinase expression inhibitor project, dose response (AID 1915).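 Further: potency for reduction of bacterial viability or growth.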 The format is functional, organism-based.

Several values for one entry are separate records, joined by “and”; a condition that tells them apart may be missing. Equal values may be shown once. Activity calls are given as the source filed them. For most assays here, no stated cut-off is given here; in the data, actives have a measured IC50 and inactives only a lower limit. Where only a bound is given, the exact number is not on record here.
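Wherever AC50 is given: CYP3A4 tested as one member of a cytochrome P450 panel screen.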

Sequence of Cytochrome P450 3A4 (P08684 whole entry): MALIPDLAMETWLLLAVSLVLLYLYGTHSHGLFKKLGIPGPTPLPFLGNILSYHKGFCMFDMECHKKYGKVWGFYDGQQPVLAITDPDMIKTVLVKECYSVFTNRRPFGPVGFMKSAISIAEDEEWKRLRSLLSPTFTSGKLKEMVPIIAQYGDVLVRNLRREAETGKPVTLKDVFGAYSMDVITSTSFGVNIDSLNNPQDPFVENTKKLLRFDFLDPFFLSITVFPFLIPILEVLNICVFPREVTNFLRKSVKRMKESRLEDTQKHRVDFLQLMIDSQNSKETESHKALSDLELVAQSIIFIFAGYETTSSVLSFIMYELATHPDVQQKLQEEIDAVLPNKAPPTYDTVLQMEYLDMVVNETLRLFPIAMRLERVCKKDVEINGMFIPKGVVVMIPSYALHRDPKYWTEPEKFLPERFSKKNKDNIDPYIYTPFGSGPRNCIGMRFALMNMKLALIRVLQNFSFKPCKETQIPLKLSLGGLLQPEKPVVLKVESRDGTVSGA

With `COCC(=O)N1CCC2(CC1)CCN(c1ccc(-c3ccccc3)cc1)CC2`, the AC50 entry at Cytochrome P450 3A4 was “inconclusive”.

As to `O=c1c2ccccc2sn1-c1nc2ccc(SC(F)F)cc2s1`, the IC50 (in general, the midpoint of a concentration-inhibition curve) in data set [1] is > 50 µM (inactive); at Phosphomannomutase 2, > 100 µM (inactive).

Consider `O=C(O)C1CCCCC1C(=O)Nc1ccc(F)c(F)c1` (stereo unspecified), for which the IC50 was 37.8 µM (active) on Leucine aminopeptidase, > 79.4 µM (inactive) in [2], > 79.4 µM (inactive) in data set [3] and > 79.4 µM (inactive) in [4].

As for `Clc1nss/c1=N\c1nccs1`, the IC50 in data set [1] is 32.9 µM (active) and 4.34 µM (active); at Phosphomannomutase 2, > 100 µM (inactive).

As for `COc1ccc(C(=O)Nc2sc3c(c2C(=O)O)CC(C)(C)OC3)cc1OC`, the results for the IC50 (on Tumor necrosis factor; in [5]; with HEK293 [6]) were > 20 µM (inactive), 15.1 µM (active) and > 20 µM (inactive), respectively.

For the molecule `O=c1c2ccccc2sn1-c1ncc(Br)s1`, the IC50 in [1] is > 50 µM (inactive); at Phosphomannomutase 2 it was > 100 µM (inactive).

For `CCOC(=O)N1CCN(c2nc(-c3cccs3)cc(C(F)(F)F)n2)CC1`, the AC50 result on Cytochrome P450 3A4 is on record as “inconclusive”.

`Cc1ccccc1/C=C1\Sc2ccc(C(=O)N3CCN(c4ccccn4)CC3)cc2N(C)C1=O`: the EC50 (usually the concentration giving half of the maximal effect) in the data set on HEK293 [7] is 8.18 µM (active); in [8], 4.49 µM (active); on Streptokinase A it was > 150 µM (not active); in the data set on Streptococcus it was 16.6 µM (active). Also, the IC50 is 5.97 µM (active) with HEK293 [9]; 7.21 µM (active) in the data set on HEK293 [10]; 6.78 µM (active) in the data set on HEK293 [11]; 6.22 µM (active) at Tumor necrosis factor; 4.28 µM (active) in data set [5]; 10.8 µM (active) in the data set with HEK293 [6].

Take `NC(=O)CN1CCOCCOCCOCCOCCOCC1`: the AC50 entry on Cytochrome P450 3A4 was “inconclusive”.

For the origin of these results see ChEMBL document CHEMBL1201862, “PubChem BioAssay data set” (2004).
